According to the OligoGym collection:
Oligonucleotides are given in HELM: sugar(base)linkage, 5' to 3'; d 2'-deoxyribose, r ribose, m 2'-O-methylribose, p phosphate. ss, as = sense and antisense strand

Biological target: SOST
Experiment: reporter assay of Huesken 2005
Settings: siRNA
Also: test concentration or dose not given here.

Substance	normalised inhibition (eCFP-eYFP dual reporter)
RNA1{r(G)p.r(C)p.r(C)p.r(G)p.r(C)p.r(G)p.r(C)p.r(G)p.r(C)p.r(G)p.r(C)p.r(G)p.r(C)p.r(A)p.r(A)p.r(G)p.r(G)p.r(U)p.r(G)p.d(T)p.d(T)}|RNA2{r(C)p.r(A)p.r(C)p.r(C)p.r(U)p.r(U)p.r(G)p.r(C)p.r(G)p.r(C)p.r(G)p.r(C)p.r(G)p.r(C)p.r(G)p.r(C)p.r(G)p.r(G)p.r(C)p.d(G)p.d(C)}$$$RNA1{StrandType:ss}|RNA2{StrandType:as}$	57.1%
RNA1{r(C)p.r(A)p.r(U)p.r(C)p.r(C)p.r(C)p.r(C)p.r(G)p.r(A)p.r(G)p.r(C)p.r(U)p.r(C)p.r(G)p.r(G)p.r(A)p.r(G)p.r(A)p.r(G)p.d(T)p.d(T)}|RNA2{r(C)p.r(U)p.r(C)p.r(U)p.r(C)p.r(C)p.r(G)p.r(A)p.r(G)p.r(C)p.r(U)p.r(C)p.r(G)p.r(G)p.r(G)p.r(G)p.r(A)p.r(U)p.r(G)p.d(A)p.d(T)}$$$RNA1{StrandType:ss}|RNA2{StrandType:as}$	50.9%
RNA1{r(U)p.r(U)p.r(C)p.r(A)p.r(C)p.r(C)p.r(C)p.r(G)p.r(C)p.r(U)p.r(A)p.r(C)p.r(G)p.r(U)p.r(G)p.r(A)p.r(C)p.r(C)p.r(G)p.d(T)p.d(T)}|RNA2{r(C)p.r(G)p.r(G)p.r(U)p.r(C)p.r(A)p.r(C)p.r(G)p.r(U)p.r(A)p.r(G)p.r(C)p.r(G)p.r(G)p.r(G)p.r(U)p.r(G)p.r(A)p.r(A)p.d(G)p.d(T)}$$$RNA1{StrandType:ss}|RNA2{StrandType:as}$	57.5%
RNA1{r(C)p.r(U)p.r(G)p.r(G)p.r(U)p.r(G)p.r(G)p.r(C)p.r(C)p.r(U)p.r(C)p.r(G)p.r(U)p.r(G)p.r(C)p.r(A)p.r(A)p.r(G)p.r(U)p.d(T)p.d(T)}|RNA2{r(A)p.r(C)p.r(U)p.r(U)p.r(G)p.r(C)p.r(A)p.r(C)p.r(G)p.r(A)p.r(G)p.r(G)p.r(C)p.r(C)p.r(A)p.r(C)p.r(C)p.r(A)p.r(G)p.d(G)p.d(C)}$$$RNA1{StrandType:ss}|RNA2{StrandType:as}$	52.5%
RNA1{r(C)p.r(G)p.r(C)p.r(G)p.r(A)p.r(G)p.r(C)p.r(U)p.r(G)p.r(C)p.r(A)p.r(C)p.r(U)p.r(U)p.r(C)p.r(A)p.r(C)p.r(C)p.r(C)p.d(T)p.d(T)}|RNA2{r(G)p.r(G)p.r(G)p.r(U)p.r(G)p.r(A)p.r(A)p.r(G)p.r(U)p.r(G)p.r(C)p.r(A)p.r(G)p.r(C)p.r(U)p.r(C)p.r(G)p.r(C)p.r(G)p.d(G)p.d(C)}$$$RNA1{StrandType:ss}|RNA2{StrandType:as}$	54.8%
RNA1{r(G)p.r(G)p.r(A)p.r(G)p.r(C)p.r(U)p.r(C)p.r(A)p.r(A)p.r(G)p.r(G)p.r(A)p.r(C)p.r(U)p.r(U)p.r(C)p.r(G)p.r(G)p.r(G)p.d(T)p.d(T)}|RNA2{r(C)p.r(C)p.r(C)p.r(G)p.r(A)p.r(A)p.r(G)p.r(U)p.r(C)p.r(C)p.r(U)p.r(U)p.r(G)p.r(A)p.r(G)p.r(C)p.r(U)p.r(C)p.r(C)p.d(G)p.d(A)}$$$RNA1{StrandType:ss}|RNA2{StrandType:as}$	75%
RNA1{r(G)p.r(A)p.r(G)p.r(G)p.r(G)p.r(C)p.r(C)p.r(A)p.r(G)p.r(G)p.r(G)p.r(G)p.r(U)p.r(G)p.r(G)p.r(C)p.r(A)p.r(G)p.r(G)p.d(T)p.d(T)}|RNA2{r(C)p.r(C)p.r(U)p.r(G)p.r(C)p.r(C)p.r(A)p.r(C)p.r(C)p.r(C)p.r(C)p.r(U)p.r(G)p.r(G)p.r(C)p.r(C)p.r(C)p.r(U)p.r(C)p.d(C)p.d(A)}$$$RNA1{StrandType:ss}|RNA2{StrandType:as}$	71.1%
RNA1{r(A)p.r(C)p.r(C)p.r(A)p.r(U)p.r(G)p.r(A)p.r(A)p.r(C)p.r(C)p.r(G)p.r(G)p.r(G)p.r(C)p.r(G)p.r(G)p.r(A)p.r(G)p.r(A)p.d(T)p.d(T)}|RNA2{r(U)p.r(C)p.r(U)p.r(C)p.r(C)p.r(G)p.r(C)p.r(C)p.r(C)p.r(G)p.r(G)p.r(U)p.r(U)p.r(C)p.r(A)p.r(U)p.r(G)p.r(G)p.r(U)p.d(C)p.d(T)}$$$RNA1{StrandType:ss}|RNA2{StrandType:as}$	69.5%
RNA1{r(C)p.r(G)p.r(A)p.r(U)p.r(G)p.r(G)p.r(G)p.r(C)p.r(C)p.r(G)p.r(U)p.r(G)p.r(C)p.r(C)p.r(G)p.r(C)p.r(A)p.r(G)p.r(C)p.d(T)p.d(T)}|RNA2{r(G)p.r(C)p.r(U)p.r(G)p.r(C)p.r(G)p.r(G)p.r(C)p.r(A)p.r(C)p.r(G)p.r(G)p.r(C)p.r(C)p.r(C)p.r(A)p.r(U)p.r(C)p.r(G)p.d(G)p.d(T)}$$$RNA1{StrandType:ss}|RNA2{StrandType:as}$	51%
RNA1{r(G)p.r(C)p.r(C)p.r(C)p.r(A)p.r(A)p.r(C)p.r(G)p.r(C)p.r(C)p.r(A)p.r(U)p.r(C)p.r(G)p.r(G)p.r(C)p.r(C)p.r(G)p.r(C)p.d(T)p.d(T)}|RNA2{r(G)p.r(C)p.r(G)p.r(G)p.r(C)p.r(C)p.r(G)p.r(A)p.r(U)p.r(G)p.r(G)p.r(C)p.r(G)p.r(U)p.r(U)p.r(G)p.r(G)p.r(G)p.r(C)p.d(A)p.d(G)}$$$RNA1{StrandType:ss}|RNA2{StrandType:as}$	64.3%
RNA1{r(C)p.r(G)p.r(C)p.r(C)p.r(A)p.r(A)p.r(G)p.r(C)p.r(C)p.r(G)p.r(G)p.r(U)p.r(C)p.r(A)p.r(C)p.r(C)p.r(G)p.r(A)p.r(G)p.d(T)p.d(T)}|RNA2{r(C)p.r(U)p.r(C)p.r(G)p.r(G)p.r(U)p.r(G)p.r(A)p.r(C)p.r(C)p.r(G)p.r(G)p.r(C)p.r(U)p.r(U)p.r(G)p.r(G)p.r(C)p.r(G)p.d(C)p.d(T)}$$$RNA1{StrandType:ss}|RNA2{StrandType:as}$	59.1%
RNA1{r(C)p.r(C)p.r(G)p.r(U)p.r(G)p.r(C)p.r(C)p.r(G)p.r(C)p.r(A)p.r(G)p.r(C)p.r(G)p.r(C)p.r(C)p.r(A)p.r(A)p.r(G)p.r(C)p.d(T)p.d(T)}|RNA2{r(G)p.r(C)p.r(U)p.r(U)p.r(G)p.r(G)p.r(C)p.r(G)p.r(C)p.r(U)p.r(G)p.r(C)p.r(G)p.r(G)p.r(C)p.r(A)p.r(C)p.r(G)p.r(G)p.d(C)p.d(C)}$$$RNA1{StrandType:ss}|RNA2{StrandType:as}$	50.5%
RNA1{r(A)p.r(G)p.r(C)p.r(U)p.r(G)p.r(C)p.r(U)p.r(G)p.r(U)p.r(G)p.r(U)p.r(C)p.r(C)p.r(C)p.r(G)p.r(G)p.r(U)p.r(G)p.r(G)p.d(T)p.d(T)}|RNA2{r(C)p.r(C)p.r(A)p.r(C)p.r(C)p.r(G)p.r(G)p.r(G)p.r(A)p.r(C)p.r(A)p.r(C)p.r(A)p.r(G)p.r(C)p.r(A)p.r(G)p.r(C)p.r(U)p.d(G)p.d(C)}$$$RNA1{StrandType:ss}|RNA2{StrandType:as}$	66%
RNA1{r(C)p.r(A)p.r(G)p.r(G)p.r(C)p.r(G)p.r(U)p.r(U)p.r(C)p.r(A)p.r(A)p.r(G)p.r(A)p.r(A)p.r(U)p.r(G)p.r(A)p.r(U)p.r(G)p.d(T)p.d(T)}|RNA2{r(C)p.r(A)p.r(U)p.r(C)p.r(A)p.r(U)p.r(U)p.r(C)p.r(U)p.r(U)p.r(G)p.r(A)p.r(A)p.r(C)p.r(G)p.r(C)p.r(C)p.r(U)p.r(G)p.d(C)p.d(C)}$$$RNA1{StrandType:ss}|RNA2{StrandType:as}$	82.4%
RNA1{r(U)p.r(G)p.r(C)p.r(G)p.r(G)p.r(C)p.r(C)p.r(C)p.r(G)p.r(G)p.r(C)p.r(G)p.r(C)p.r(G)p.r(C)p.r(C)p.r(U)p.r(G)p.r(C)p.d(T)p.d(T)}|RNA2{r(G)p.r(C)p.r(A)p.r(G)p.r(G)p.r(C)p.r(G)p.r(C)p.r(G)p.r(C)p.r(C)p.r(G)p.r(G)p.r(G)p.r(C)p.r(C)p.r(G)p.r(C)p.r(A)p.d(C)p.d(T)}$$$RNA1{StrandType:ss}|RNA2{StrandType:as}$	52.1%
RNA1{r(C)p.r(U)p.r(C)p.r(A)p.r(A)p.r(G)p.r(G)p.r(A)p.r(C)p.r(U)p.r(U)p.r(C)p.r(G)p.r(G)p.r(G)p.r(A)p.r(C)p.r(C)p.r(G)p.d(T)p.d(T)}|RNA2{r(C)p.r(G)p.r(G)p.r(U)p.r(C)p.r(C)p.r(C)p.r(G)p.r(A)p.r(A)p.r(G)p.r(U)p.r(C)p.r(C)p.r(U)p.r(U)p.r(G)p.r(A)p.r(G)p.d(C)p.d(T)}$$$RNA1{StrandType:ss}|RNA2{StrandType:as}$	62.6%
RNA1{r(U)p.r(C)p.r(G)p.r(G)p.r(C)p.r(C)p.r(G)p.r(C)p.r(G)p.r(G)p.r(C)p.r(A)p.r(A)p.r(G)p.r(U)p.r(G)p.r(G)p.r(U)p.r(G)p.d(T)p.d(T)}|RNA2{r(C)p.r(A)p.r(C)p.r(C)p.r(A)p.r(C)p.r(U)p.r(U)p.r(G)p.r(C)p.r(C)p.r(G)p.r(C)p.r(G)p.r(G)p.r(C)p.r(C)p.r(G)p.r(A)p.d(T)p.d(G)}$$$RNA1{StrandType:ss}|RNA2{StrandType:as}$	66%
RNA1{r(G)p.r(G)p.r(U)p.r(G)p.r(A)p.r(G)p.r(G)p.r(C)p.r(G)p.r(C)p.r(C)p.r(G)p.r(C)p.r(G)p.r(C)p.r(G)p.r(C)p.r(G)p.r(C)p.d(T)p.d(T)}|RNA2{r(G)p.r(C)p.r(G)p.r(C)p.r(G)p.r(C)p.r(G)p.r(C)p.r(G)p.r(G)p.r(C)p.r(G)p.r(C)p.r(C)p.r(U)p.r(C)p.r(A)p.r(C)p.r(C)p.d(A)p.d(C)}$$$RNA1{StrandType:ss}|RNA2{StrandType:as}$	26%
RNA1{r(A)p.r(A)p.r(G)p.r(G)p.r(A)p.r(C)p.r(U)p.r(U)p.r(C)p.r(G)p.r(G)p.r(G)p.r(A)p.r(C)p.r(C)p.r(G)p.r(A)p.r(G)p.r(G)p.d(T)p.d(T)}|RNA2{r(C)p.r(C)p.r(U)p.r(C)p.r(G)p.r(G)p.r(U)p.r(C)p.r(C)p.r(C)p.r(G)p.r(A)p.r(A)p.r(G)p.r(U)p.r(C)p.r(C)p.r(U)p.r(U)p.d(G)p.d(A)}$$$RNA1{StrandType:ss}|RNA2{StrandType:as}$	58.7%
RNA1{r(C)p.r(C)p.r(G)p.r(C)p.r(U)p.r(A)p.r(C)p.r(G)p.r(U)p.r(G)p.r(A)p.r(C)p.r(C)p.r(G)p.r(A)p.r(U)p.r(G)p.r(G)p.r(G)p.d(T)p.d(T)}|RNA2{r(C)p.r(C)p.r(C)p.r(A)p.r(U)p.r(C)p.r(G)p.r(G)p.r(U)p.r(C)p.r(A)p.r(C)p.r(G)p.r(U)p.r(A)p.r(G)p.r(C)p.r(G)p.r(G)p.d(G)p.d(T)}$$$RNA1{StrandType:ss}|RNA2{StrandType:as}$	64.7%
